Measurements as given in ChEMBL document CHEMBL3044543, “Synthetic sialic-acid-containing polyvalent antiviral inhibitors” (Med Chem Res, 2009).
pIC50: −log10 of the molar value.

Key:
Hemagglutinin = Hemagglutinin (Influenza A virus, UniProt K7N5L2); assay: Binding affinity to Influenza virus A Hemagglutinin
[1] = molecular target: Hemagglutinin (Influenza A virus) (UniProt K7N5L2); assay: Inhibition of Influenza virus A/H3N2/NIB/44/90M Hemagglutinin after 2 hr by horseradish peroxidase assay relative to Neu5Aalpha

Structure (SMILES): CC(=O)N[C@H]1[C@H]([C@H](O)[C@H](O)CO)OC(OCCCCCCC(=O)NCc2cccc3ccccc23)(C(=O)O)C[C@@H]1OC(=O)CNS(=O)(=O)c1cccc2c(N(C)C)cccc12 (some centres not stated)
- pIC50 (Hemagglutinin): 2.52

Structure (SMILES): CC(=O)N[C@H]1[C@H]([C@H](O)[C@H](O)CO)OC(OCc2ccc(NC(=O)CNC(=O)CCCCC(=O)NCC(=O)NCC(=O)NCC(=O)NCC(=O)NCC(=O)NCC(=O)NCC(=O)NCC(CNC(=O)CNC(=O)CNC(=O)CNC(=O)CNC(=O)CNC(=O)CNC(=O)CNC(=O)CCCCC(=O)NCC(=O)Nc3ccc(COC4(C(=O)O)C[C@H](O)[C@@H](NC(C)=O)[C@H]([C@H](O)[C@H](O)CO)O4)cc3)(CNC(=O)CNC(=O)CNC(=O)CNC(=O)CNC(=O)CNC(=O)CNC(=O)CNC(=O)CCCCC(=O)NCC(=O)Nc3ccc(COC4(C(=O)O)C[C@H](O)[C@@H](NC(C)=O)[C@H]([C@H](O)[C@H](O)CO)O4)cc3)CNC(=O)CNC(=O)CNC(=O)CNC(=O)CNC(=O)CNC(=O)CNC(=O)CNC(=O)CCCCC(=O)NCC(=O)Nc3ccc(COC4(C(=O)O)C[C@H](O)[C@@H](NC(C)=O)[C@H]([C@H](O)[C@H](O)CO)O4)cc3)cc2)(C(=O)O)C[C@@H]1O (some centres not stated)
- Ratio [1]: 1000
